The values below come from patent US11339169B2, “P2X3 and/or P2X2/3 compounds and methods” (Asana BioSciences, LLC, priority 2016, dated 2022).

Several values for one entry are separate records, joined by “and”; a condition that tells them apart may be missing. Identical values can stand only once.

The target in test [1] is T1, hP2X3 (Homo sapiens, UniProt P56373).
T1 construct: host or cells: HEK (hP2X3-HEK)
T1 sequence (P56373 1-397): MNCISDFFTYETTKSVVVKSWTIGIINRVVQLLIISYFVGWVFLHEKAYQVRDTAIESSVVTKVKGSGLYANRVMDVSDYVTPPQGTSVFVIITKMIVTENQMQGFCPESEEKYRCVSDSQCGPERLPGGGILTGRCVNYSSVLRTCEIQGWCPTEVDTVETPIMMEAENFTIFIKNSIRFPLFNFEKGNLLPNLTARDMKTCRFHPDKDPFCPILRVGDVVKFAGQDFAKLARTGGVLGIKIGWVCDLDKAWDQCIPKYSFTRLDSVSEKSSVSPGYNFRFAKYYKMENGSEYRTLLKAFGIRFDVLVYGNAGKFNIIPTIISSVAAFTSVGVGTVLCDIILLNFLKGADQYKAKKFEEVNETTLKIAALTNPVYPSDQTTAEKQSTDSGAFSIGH
Kind of test: FLIPR intracellular calcium assay, hP2X3. The class given is cell-based. The conditions noted are these: human P2X3-HEK cells, agonist at EC75. Summed up:
(§1)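 HEK (hP2X3) or tetracycline-inducible TRex293 (hP2X2/3) cells loaded with Calcium 4 dye, then given 11-point half-log compound dilutions for 15 min at room temperature in HBSS/HEPES, pH 7.4, with 1.8 mM CaCl2. Cells challenged with agonist at EC75; IC50 derived from fluorescence inhibition versus no-compound wells.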
In general terms: Calcium flux is commonly read through the fluorescence of an indicator in the cells.

Test [2] deals with T2, hP2X2/3 (Homo sapiens, UniProt P56373+Q9UBL9).
T2 construct: host or cells: TRex293 (hP2X2/3-TRex293), doxycycline-induced
T2 sequence (P56373 1-397): T1 sequence (P56373 1-397)
T2 sequence (Q9UBL9 1-471): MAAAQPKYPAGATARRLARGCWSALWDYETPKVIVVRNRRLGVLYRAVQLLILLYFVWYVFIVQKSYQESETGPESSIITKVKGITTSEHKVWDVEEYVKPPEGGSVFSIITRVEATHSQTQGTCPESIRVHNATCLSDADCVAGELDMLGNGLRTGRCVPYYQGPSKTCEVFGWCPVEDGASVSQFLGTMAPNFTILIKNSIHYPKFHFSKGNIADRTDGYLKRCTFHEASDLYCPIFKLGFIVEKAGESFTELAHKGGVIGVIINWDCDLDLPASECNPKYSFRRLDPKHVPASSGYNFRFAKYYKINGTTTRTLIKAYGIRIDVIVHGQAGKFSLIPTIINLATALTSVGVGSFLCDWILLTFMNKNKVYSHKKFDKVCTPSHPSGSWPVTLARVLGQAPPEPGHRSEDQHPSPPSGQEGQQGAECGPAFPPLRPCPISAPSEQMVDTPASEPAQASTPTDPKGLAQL
Kind of test: FLIPR intracellular calcium assay, hP2X2/3. In kind it is cell-based. The conditions noted are these: human P2X2/3-TRex293 cells, agonist at EC75. Summed up: as §1

As for `CC(=O)N1CCN(c2nc(N[C@H](C)c3cnc4ccccc4c3)c3nn(C(C)C)c(C)c3n2)CC1` [Example 102], the results for the IC50 in test [1] and in test [2] were 1 to 100 nM and above 10000 nM, respectively.
The matching figures for `CC(=O)N1CCN(c2nc(N[C@H](C)c3cnc4ccccc4c3)c3nn(C(C)C)c(C#N)c3n2)CC1` [Example 103]: 1 to 100 nM and above 10000 nM.
On the same counts, the results for `CC(=O)N1CCN(c2nc(N[C@H](C)c3cnc4ccccc4c3)c3c(n2)c(C#N)nn3C(C)C)CC1` [Example 104] are 1 to 100 nM and above 10000 nM.
For `CCC(C)n1nc2c(N[C@H](C)c3cnc4ccccc4c3)nc(N3CCN(C(C)=O)CC3)nc2c1Br` (stereo partly shown) [Example 105], the results for the IC50 in test [1] and in test [2] were 1 to 100 nM and 1000 to 10000 nM, respectively.
On the same counts, the results for `CCC(C)n1nc2c(N[C@H](C)c3cnc4ccccc4c3)nc(N3CCN(C(C)=O)CC3)nc2c1C#N` (stereo partly shown) [Example 106] are 1 to 100 nM and 1000 to 10000 nM.
The matching figures for `CCC(C)n1ncc2nc(N3CCN(S(N)(=O)=O)CC3)nc(N[C@@H](c3cnc4ccccc4c3)C3CC3)c21` (stereo partly drawn) [Example 108, 4-{1-sec-Butyl-7-[((R)-cyclopropyl-quinolin-3-yl-methyl)-amino]-1H-pyrazolo[4,3-d]pyrimidin-5-yl}-piperazine-1-sulfonic acid amide]: 1 to 100 nM and 1000 to 10000 nM.
On the same counts, the results for `CCC(C)n1ncc2nc(N3CCN(C(N)=NC#N)CC3)nc(N[C@@H](c3cnc4ccccc4c3)C3CC3)c21` (stereo partly drawn) [Example 110, 4-(1-sec-butyl-7-{[(R)-cyclopropyl(quinolin-3-yl)methyl]amino}-1H-pyrazolo[4,3-d]pyrimidin-5-yl)-N′-cyanopiperazine-1-carboximidamide] are 1 to 100 nM and 1 to 100 nM.
For `CCC(C)n1ncc2nc(N3CCN(/C(N)=N\C#N)CC3)nc(N[C@H](C)c3cnc4ccccc4c3)c21` (stereo partly drawn) [Example 111, 4-(1-sec-butyl-7-{[(R)-methyl(quinolin-3-yl)methyl]amino}-1H-pyrazolo[4,3-d]pyrimidin-5-yl)-N′-cyanopiperazine-1-carboximidamide], the IC50 in test [1] and in test [2] was 1 to 100 nM each time.
For `CCC(C)n1ncc2nc(N3CCN(C(=N)N)CC3)nc(N[C@@H](c3cnc4ccccc4c3)C3CC3)c21` (stereo partly drawn) [Example 112, 4-{1-sec-Butyl-7-[((R)-cyclopropyl-quinolin-3-yl-methyl)-amino]-1H-pyrazolo[4,3-d]pyrimidin-5-yl}-piperazine-1-carboxamidine], the IC50 in test [1] and in test [2] was 1 to 100 nM throughout.
As for `CCC(C)n1ncc2nc(-c3cnn(CCO)c3)nc(N[C@H](C)c3cnc4ccccc4c3)c21` (stereo partly drawn) [Example 113, 2-{4-[1-sec-Butyl-7-((R)-1-quinolin-3-yl-ethylamino)-1H-pyrazolo[4,3-d]pyrimidin-5-yl]-pyrazol-1-yl}-ethanol], the IC50 (in general, the point on the concentration scale where inhibition reaches its midpoint) in test [1] lay in the range of 1 to 100 nM; in test [2], 1000 to 10000 nM.
As for `CCC(C)n1ncc2nc(-c3cnn(C)c3)nc(N[C@@H](c3cnc4ccccc4c3)C3CC3)c21` (stereo partly shown) [Example 114], the IC50 in test [1] and in test [2] was 1 to 100 nM each time.
Turning to `CCC(C)n1ncc2nc(-c3cnn(CC)c3)nc(N[C@@H](c3cnc4ccccc4c3)C3CC3)c21` (stereo partly shown) [Example 115], the IC50 in test [1] is 1 to 100 nM; in test [2], 100 to 1000 nM.
On the same counts, the results for `CCC(C)n1ncc2nc(-c3cnn(CCF)c3)nc(N[C@@H](c3cnc4ccccc4c3)C3CC3)c21` (stereo partly shown) [Example 116] are 1 to 100 nM and 1 to 100 nM.
The matching figures for `Cn1cc(-c2nc(N[C@@H](c3cnc4ccccc4c3)C3CC3)c3c(cnn3C3CCOCC3)n2)cn1` [Example 117]: 1 to 100 nM and 1000 to 10000 nM.
The matching figures for `CCC(C)n1ncc2nc(C3CCN(C(N)=O)CC3)nc(N[C@@H](c3cnc4ccccc4c3)C3CC3)c21` (stereo partly shown) [Example 118]: 1 to 100 nM and 1000 to 10000 nM.
Turning to `CCC(C)n1ncc2nc(-c3cn[nH]c3)nc(N[C@@H](c3cnc4ccccc4c3)C3CC3)c21` (stereo partly shown) [Example 119], the IC50 in test [1] was in the range of 1 to 100 nM; in test [2], 1000 to 10000 nM.
On the same counts, the results for `CCC(C)n1ncc2nc(-c3cnn(CCO)c3)nc(N[C@@H](c3cnc4ccccc4c3)C3CC3)c21` (stereo partly shown) [Example 121] are 1 to 100 nM and 100 to 1000 nM.
With `CC[C@H](C)n1ncc2nc(-c3cnn(CCF)c3)nc(NC(CO)c3cnc4ccccc4c3)c21` (stereo partly shown) [Example 122], the IC50 in test [1] is 1 to 100 nM; in test [2] it was 100 to 1000 nM.
With `CCC(C)n1ncc2nc(-c3cnn(CCF)c3)nc(N[C@H](C)c3cn4ccc(C)cc4n3)c21` (stereo partly shown) [Example 123], the IC50 in test [1] was 1 to 100 nM; in test [2] it was 1000 to 10000 nM and 100 to 1000 nM.
In the case of `CCC(C)n1ncc2nc(C(=O)NC3CC3)nc(N[C@@H](c3cnc4ccccc4c3)C3CC3)c21` (stereo partly drawn) [Example 124, 1-sec-Butyl-7-[((R)-cyclopropyl-quinolin-3-yl-methyl)-amino]-1H-pyrazolo[4,3-d]pyrimidine-5-carboxylic Acid Cyclopropylamide], the IC50 in test [1] lay in the range of 1 to 100 nM; in test [2] it was 1000 to 10000 nM.
The matching figures for `CCC(C)n1ncc2nc(-c3nnc(C)o3)nc(N[C@@H](c3cnc4ccccc4c3)C3CC3)c21` (stereo partly drawn) [Example 125, [1-sec-Butyl-5-(5-methyl-[1,3,4]oxadiazol-2-yl)-1H-pyrazolo[4,3-d]pyrimidin-7-yl]-((R)-cyclopropyl-quinolin-3-yl-methyl)-amine]: 1 to 100 nM and 1000 to 10000 nM.
On the same counts, the results for `CCC(C)n1ncc2nc(-n3cc(C(N)=O)nn3)nc(N[C@@H](c3cnc4ccccc4c3)C3CC3)c21` (stereo partly drawn) [Example 126, 1-{1-sec-Butyl-7-[((R)-cyclopropyl-quinolin-3-yl-methyl)-amino]-1H-pyrazolo[4,3-d]pyrimidin-5-yl}-1H-[1,2,3]triazole-4-carboxylic Acid Amide] are 1 to 100 nM and 1000 to 10000 nM.
On the same counts, the results for `CCC(C)n1ncc2nc(-c3cccnn3)nc(N[C@@H](c3cnc4ccccc4c3)C3CC3)c21` (stereo partly drawn) [Example 127, (1-sec-Butyl-5-pyridazin-3-yl-1H-pyrazolo[4,3-d]pyrimidin-7-yl)-((R)-cyclopropyl-quinolin-3-yl-methyl)-amine] are 1 to 100 nM and 1000 to 10000 nM.
